The source of these data is patent publication US7582694B2, “Antimicrobial lubricant for wood fiber-plastic composites” (Lonza, Inc., priority 2002, dated 2009).

One assay has as its system G. trabeum. The assay can be described thus: agar plate method, inhibition of fungus growth. It is filed as cell-based. Particulars: for percent inhibition (retardation) of the fungal growth, G. trabeum: aqueous solution. Here is the method:
(§1) The efficacy of aqueous solutions of alkyldimethylbenzyl ammonium lauryl sulfate and didecyldimethyl ammonium lauryl sulfate to inhibit fungus growth was evaluated by the agar plate method known in the art. Also tested were two commercially known biocides: didecyldimethyl ammonium chloride (Bardac® 2080) and alkyldimethylbenzyl ammonium chloride (Barquat® MB-80).
(§2) The test data are reported as a percent inhibition (retardation) of the fungal growth.

The subject of the next assay is T. versicolor. The assay can be described thus: agar plate method, inhibition of fungus growth. It is filed as cell-based. Particulars: for percent inhibition (retardation) of the fungal growth, T. versicolor: aqueous solution. Here is the method: as §1, §2
For a further assay, the system named is C. globosum. The assay is described as follows: agar plate method, inhibition of fungus growth. It is filed as cell-based. Particulars: for percent inhibition (retardation) of the fungal growth, C. globosum: aqueous solution. Here is the method:
as §1, §2

The subject of another assay is P. placenta. The assay can be described thus: agar plate method, inhibition of fungus growth. It is filed as cell-based. Particulars: for percent inhibition (retardation) of the fungal growth, P. placenta: aqueous solution. On the procedure: as §1, §2
Assay [1] relates to brown-rot fungus G. trabeum. The assay is described as follows: standard soil block test (American Wood Preservation Association E10) on extruded composites. Particulars: extruded samples containing the salt vs conventional lubricant control; 22 weeks G. trabeum. On the procedure: The efficacy of extruded samples containing alkyldimethylbenzyl ammonium lauryl sulfate or didecyldimethyl ammonium lauryl sulfate to inhibit fungal growth was evaluated by the standard soil block test method (American Wood Preservation Association E10) known in the art. The biocide effectiveness is determined by % weight loss in wood component of the tested samples. The sample blocks (13 mm×14 mm×14 mm) were exposed to the brown-rot fungus G. trabeum for 22 weeks, with four replicates per treatment.

The mark [2] stands for this setting: Gloeophyllum trabeum, read-out: percent inhibition (retardation) of the fungal growth, G. trabeum.
The mark [3] stands for this setting: Trametes versicolor, read-out: percent inhibition (retardation) of the fungal growth, T. versicolor.
Setting [4] is: Chaetomium globosum, read-out: percent inhibition (retardation) of the fungal growth, C. globosum.
Where [5] appears, read: read-out: percent inhibition (retardation) of the fungal growth, P. placenta.

On to `CCCCCCCCCC[N+](C)(C)CCCCCCCCCC` [didecyldimethyl ammonium chloride, reference compound], for which the inhibition (as a rule, how much of the control response was suppressed) at 50 ppm was found to be 78.4% in the assay on G. trabeum (setting [2]), 36.8% in the assay on T. versicolor (setting [3]), 68.2% in the assay on C. globosum (setting [4]) and 88.4% in the assay with P. placenta (setting [5]). The inhibition at 500 ppm was 82.4% with G. trabeum (setting [2]), 80.7% in the assay with T. versicolor (setting [3]), 74.3% in the assay on C. globosum (setting [4]) and 89.2% in the assay on P. placenta (setting [5]).
Consider Didecyldimethyl ammonium lauryl sulfate, for which the “weight loss compared with control samples” value in assay [1] is listed as “significantly lower weight loss than the control samples”. Further, the “percent inhibition (retardation) of the fungal growth, G. trabeum” value (shortened to “percent inhibition (retardation) … G. trabeum”) was 58.0% in the assay with G. trabeum (50 ppm) and 80.8% with G. trabeum (500 ppm). Also, the “percent inhibition (retardation) of the fungal growth, T. versicolor” value (shortened to “percent inhibition … T. versicolor”) is reported as 44.0% in the assay on T. versicolor (50 ppm) and 81.3% in the assay on T. versicolor (500 ppm). Moreover, the “percent inhibition (retardation) of the fungal growth, C. globosum” value (“percent inhibition (retardation) … C. globosum” below) with C. globosum (50 ppm) was 68.0%; in the assay on C. globosum (500 ppm) it was 78.7%. Moreover, the “percent inhibition (retardation) of the fungal growth, P. placenta” value (from here on “percent inhibition (retardation) … P. placenta”) in the assay on P. placenta (50 ppm) is given as 82.6%; in the assay on P. placenta (500 ppm) it was 86.0%.
“alkyldimethylbenzyl ammonium chloride [reference compound]”: the “percent inhibition (retardation) … G. trabeum” value in the assay with G. trabeum (50 ppm) came out at 82.1%; in the assay with G. trabeum (500 ppm) it was 89.0%. Also, the results for the “percent inhibition … T. versicolor” value with T. versicolor (50 ppm) and in the assay on T. versicolor (500 ppm) were 55.0% and 85.0%, respectively. For the same molecule, the “percent inhibition (retardation) … C. globosum” value in the assay with C. globosum (50 ppm) is 63.8%; in the assay on C. globosum (500 ppm), 81.8%. Further, the “percent inhibition (retardation) … P. placenta” value in the assay with P. placenta (50 ppm) is given as 86.8%; in the assay with P. placenta (500 ppm) it was 87.5%.
For the molecule “alkyldimethylbenzyl ammonium lauryl sulfate”, the “weight loss compared with control samples” value in assay [1] is reported as “significantly lower weight loss than the control samples”. Besides, the “percent inhibition (retardation) … G. trabeum” value in the assay on G. trabeum (50 ppm) was determined as 51.7%; in the assay with G. trabeum (500 ppm), 82.3%. The figures for the “percent inhibition … T. versicolor” value in the assay with T. versicolor (50 ppm) and with T. versicolor (500 ppm) were 32.2% and 72.9%, respectively. Besides, the “percent inhibition (retardation) … C. globosum” value was 64.5% in the assay with C. globosum (50 ppm) and 75.6% in the assay with C. globosum (500 ppm). Also, the “percent inhibition (retardation) … P. placenta” value in the assay with P. placenta (50 ppm) is 83.0%; with P. placenta (500 ppm), 86.6%.
